Source: patent US20120122860A1, “SOLID FORMS OF SULFONAMIDES AND AMINO ACIDS” (Plexxikon, Inc., priority 2009, published 2012)

Assays:
[1] = biological target: MAP4K4 (Homo sapiens, UniProt O95819); assay: Kinase activity assay, MAP4K4
[2] = biological target: Kit (Homo sapiens, UniProt P10721); assay: Kinase activity assay, Kit
[3] = biological target: C-Raf (Homo sapiens, UniProt P04049); assay: Kinase activity assay, C-Raf
[4] = biological target: B-Raf (Homo sapiens, UniProt P15056); assay: Kinase activity assay, B-Raf; assay type: biochemical; settings: read-out: activity toward kinase B-Raf, IC50
B-Raf, sequence (P15056 whole entry): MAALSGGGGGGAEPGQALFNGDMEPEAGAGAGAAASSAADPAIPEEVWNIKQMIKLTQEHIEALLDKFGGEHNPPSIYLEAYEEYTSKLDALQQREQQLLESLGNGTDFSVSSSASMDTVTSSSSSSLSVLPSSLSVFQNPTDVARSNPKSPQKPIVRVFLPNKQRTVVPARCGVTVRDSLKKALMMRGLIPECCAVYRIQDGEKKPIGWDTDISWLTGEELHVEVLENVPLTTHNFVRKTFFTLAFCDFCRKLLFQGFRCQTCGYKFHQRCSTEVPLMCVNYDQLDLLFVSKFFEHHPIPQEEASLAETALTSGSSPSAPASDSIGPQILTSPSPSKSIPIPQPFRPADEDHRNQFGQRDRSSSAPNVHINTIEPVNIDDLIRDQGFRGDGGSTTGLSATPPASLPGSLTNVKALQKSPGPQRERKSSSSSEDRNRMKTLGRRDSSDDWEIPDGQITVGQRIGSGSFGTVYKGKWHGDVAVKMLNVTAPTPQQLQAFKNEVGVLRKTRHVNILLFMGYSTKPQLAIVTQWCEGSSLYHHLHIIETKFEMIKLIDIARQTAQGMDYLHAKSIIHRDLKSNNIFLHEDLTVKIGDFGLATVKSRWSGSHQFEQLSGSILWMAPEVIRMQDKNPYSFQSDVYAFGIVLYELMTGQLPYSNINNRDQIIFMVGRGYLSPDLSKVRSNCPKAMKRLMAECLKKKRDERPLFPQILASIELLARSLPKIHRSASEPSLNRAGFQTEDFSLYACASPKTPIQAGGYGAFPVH

[5] = biological target: T1, A-Raf (Homo sapiens, UniProt P10398); assay: Kinase activity assay, A-Raf
T1 sequence (P10398 1-606): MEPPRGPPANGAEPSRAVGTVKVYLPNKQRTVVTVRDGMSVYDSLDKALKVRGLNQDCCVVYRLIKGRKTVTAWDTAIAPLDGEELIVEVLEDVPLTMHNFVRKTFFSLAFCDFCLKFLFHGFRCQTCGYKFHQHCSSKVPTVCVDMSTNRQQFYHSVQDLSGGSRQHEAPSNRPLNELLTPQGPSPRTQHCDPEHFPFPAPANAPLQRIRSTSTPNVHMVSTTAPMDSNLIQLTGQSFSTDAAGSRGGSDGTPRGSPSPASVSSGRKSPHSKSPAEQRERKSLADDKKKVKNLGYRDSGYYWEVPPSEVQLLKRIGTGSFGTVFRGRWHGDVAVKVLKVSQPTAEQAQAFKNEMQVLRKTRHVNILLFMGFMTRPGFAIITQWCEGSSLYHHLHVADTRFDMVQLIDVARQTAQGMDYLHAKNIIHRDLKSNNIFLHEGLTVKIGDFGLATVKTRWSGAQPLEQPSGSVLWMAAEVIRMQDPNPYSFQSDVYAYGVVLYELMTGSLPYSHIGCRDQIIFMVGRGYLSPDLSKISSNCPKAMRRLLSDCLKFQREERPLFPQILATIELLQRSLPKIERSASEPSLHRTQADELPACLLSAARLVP

[6] = biological target: Kdr (Homo sapiens, UniProt P35968); assay: Kinase activity assay, Kdr
[7] = biological target: Src (Homo sapiens, UniProt P12931); assay: Kinase activity assay, Src
Src, sequence (P12931 whole entry): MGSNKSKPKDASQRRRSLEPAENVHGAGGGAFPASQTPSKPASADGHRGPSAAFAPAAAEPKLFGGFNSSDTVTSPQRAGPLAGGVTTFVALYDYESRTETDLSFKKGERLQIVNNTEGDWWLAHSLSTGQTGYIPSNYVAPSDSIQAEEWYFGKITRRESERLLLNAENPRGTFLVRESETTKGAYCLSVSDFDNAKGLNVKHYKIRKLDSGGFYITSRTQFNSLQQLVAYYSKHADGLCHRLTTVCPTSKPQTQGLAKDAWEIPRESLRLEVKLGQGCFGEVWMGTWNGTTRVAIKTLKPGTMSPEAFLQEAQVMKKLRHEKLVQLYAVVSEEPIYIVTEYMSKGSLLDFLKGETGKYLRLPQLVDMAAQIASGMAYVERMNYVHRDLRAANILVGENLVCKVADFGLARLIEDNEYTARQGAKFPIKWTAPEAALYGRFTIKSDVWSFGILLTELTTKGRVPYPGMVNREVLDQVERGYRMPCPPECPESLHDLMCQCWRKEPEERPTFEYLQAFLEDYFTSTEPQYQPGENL

[8] = biological target: B-Raf V600E (Homo sapiens, UniProt P15056, V600E); assay: Kinase activity assay, B-Raf V600E; assay type: biochemical; settings: read-out: activity toward kinase B-Raf V600E, IC50
B-Raf V600E, sequence (P15056 whole entry V600E): as the sequence (P15056 whole entry) above, with V600E counted along it

Measured: IC50

Kit, sequence (P10721 26-976): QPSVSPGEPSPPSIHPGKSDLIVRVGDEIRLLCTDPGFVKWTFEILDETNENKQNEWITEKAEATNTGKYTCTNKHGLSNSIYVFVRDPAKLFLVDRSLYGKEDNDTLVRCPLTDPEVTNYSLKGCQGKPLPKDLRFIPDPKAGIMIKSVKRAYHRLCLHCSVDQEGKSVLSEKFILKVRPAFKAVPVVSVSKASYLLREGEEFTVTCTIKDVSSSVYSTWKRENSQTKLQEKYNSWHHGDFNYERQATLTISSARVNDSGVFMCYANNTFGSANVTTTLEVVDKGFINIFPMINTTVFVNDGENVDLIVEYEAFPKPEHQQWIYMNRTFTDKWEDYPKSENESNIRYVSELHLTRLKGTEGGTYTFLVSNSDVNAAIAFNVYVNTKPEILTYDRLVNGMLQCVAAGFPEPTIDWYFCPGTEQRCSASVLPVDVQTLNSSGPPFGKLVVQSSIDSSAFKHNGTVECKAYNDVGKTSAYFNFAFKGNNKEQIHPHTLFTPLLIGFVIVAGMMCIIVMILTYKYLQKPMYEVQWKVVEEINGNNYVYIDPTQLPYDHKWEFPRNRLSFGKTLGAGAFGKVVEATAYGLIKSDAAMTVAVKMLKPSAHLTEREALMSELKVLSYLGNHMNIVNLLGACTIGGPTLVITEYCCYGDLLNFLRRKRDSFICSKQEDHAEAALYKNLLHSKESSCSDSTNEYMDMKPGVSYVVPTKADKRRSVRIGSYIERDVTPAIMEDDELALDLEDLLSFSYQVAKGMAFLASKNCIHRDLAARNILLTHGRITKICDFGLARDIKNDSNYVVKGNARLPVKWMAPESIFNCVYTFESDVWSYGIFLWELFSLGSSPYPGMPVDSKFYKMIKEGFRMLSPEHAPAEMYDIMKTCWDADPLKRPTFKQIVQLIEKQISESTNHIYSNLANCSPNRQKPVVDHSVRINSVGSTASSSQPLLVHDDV
C-Raf, sequence (P04049 whole entry): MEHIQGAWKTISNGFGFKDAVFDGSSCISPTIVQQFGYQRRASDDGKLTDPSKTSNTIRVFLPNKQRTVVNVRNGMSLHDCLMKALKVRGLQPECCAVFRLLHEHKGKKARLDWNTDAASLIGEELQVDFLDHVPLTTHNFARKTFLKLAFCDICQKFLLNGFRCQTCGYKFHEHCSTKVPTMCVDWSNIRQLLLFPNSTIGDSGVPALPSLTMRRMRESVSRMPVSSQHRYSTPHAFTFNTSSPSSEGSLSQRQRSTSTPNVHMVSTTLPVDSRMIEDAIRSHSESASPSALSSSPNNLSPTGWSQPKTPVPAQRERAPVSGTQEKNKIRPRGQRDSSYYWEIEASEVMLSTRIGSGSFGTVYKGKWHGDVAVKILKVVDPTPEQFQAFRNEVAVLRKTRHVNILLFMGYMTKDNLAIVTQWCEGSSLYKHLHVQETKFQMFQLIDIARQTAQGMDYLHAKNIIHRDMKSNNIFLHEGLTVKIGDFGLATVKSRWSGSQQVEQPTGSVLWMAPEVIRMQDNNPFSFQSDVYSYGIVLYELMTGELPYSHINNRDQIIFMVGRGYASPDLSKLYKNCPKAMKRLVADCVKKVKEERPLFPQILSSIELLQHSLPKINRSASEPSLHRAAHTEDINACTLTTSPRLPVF
MAP4K4, sequence (O95819 whole entry): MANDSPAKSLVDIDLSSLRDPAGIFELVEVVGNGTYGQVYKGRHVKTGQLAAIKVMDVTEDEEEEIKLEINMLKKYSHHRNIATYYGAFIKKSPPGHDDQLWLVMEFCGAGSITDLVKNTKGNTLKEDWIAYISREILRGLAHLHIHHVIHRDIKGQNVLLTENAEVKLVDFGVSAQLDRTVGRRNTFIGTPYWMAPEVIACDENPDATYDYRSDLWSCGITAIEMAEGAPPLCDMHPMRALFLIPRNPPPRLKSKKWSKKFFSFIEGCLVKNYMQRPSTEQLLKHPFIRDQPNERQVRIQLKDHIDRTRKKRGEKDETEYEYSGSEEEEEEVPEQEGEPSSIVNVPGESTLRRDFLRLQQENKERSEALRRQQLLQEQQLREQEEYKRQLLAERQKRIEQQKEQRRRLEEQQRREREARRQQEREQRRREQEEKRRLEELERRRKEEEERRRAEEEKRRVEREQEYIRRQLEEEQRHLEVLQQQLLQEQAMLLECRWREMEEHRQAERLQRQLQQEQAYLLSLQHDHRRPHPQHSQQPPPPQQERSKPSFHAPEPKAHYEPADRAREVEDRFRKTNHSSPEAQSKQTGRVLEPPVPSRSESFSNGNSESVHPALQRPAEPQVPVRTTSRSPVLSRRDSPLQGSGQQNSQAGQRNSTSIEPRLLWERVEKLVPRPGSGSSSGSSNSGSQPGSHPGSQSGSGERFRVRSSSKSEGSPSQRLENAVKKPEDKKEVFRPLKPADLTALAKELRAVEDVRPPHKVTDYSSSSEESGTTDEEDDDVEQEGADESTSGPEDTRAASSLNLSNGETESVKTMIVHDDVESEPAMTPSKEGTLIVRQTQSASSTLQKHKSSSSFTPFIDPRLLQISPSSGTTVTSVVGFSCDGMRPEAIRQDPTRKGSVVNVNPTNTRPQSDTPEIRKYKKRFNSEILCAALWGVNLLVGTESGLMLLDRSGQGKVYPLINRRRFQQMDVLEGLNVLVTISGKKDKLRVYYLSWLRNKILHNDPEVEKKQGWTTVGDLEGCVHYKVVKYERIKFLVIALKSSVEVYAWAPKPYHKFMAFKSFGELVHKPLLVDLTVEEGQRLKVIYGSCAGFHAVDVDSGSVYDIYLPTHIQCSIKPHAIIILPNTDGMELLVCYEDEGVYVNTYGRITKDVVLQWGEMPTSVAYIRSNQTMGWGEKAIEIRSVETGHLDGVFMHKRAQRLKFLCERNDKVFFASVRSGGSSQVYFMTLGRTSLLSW

COc1cnc2[nH]cc(C(=O)c3c(F)ccc(NS(=O)(=O)c4ccccc4F)c3F)c2c1 [P-2009, N-[2,4-Difluoro-3-(5-methoxy-1H-pyrrolo[2,3-b]pyridine-3-carbonyl)-phenyl]-2-fluoro-benzenesulfonamide]
≤ 10 µM: all assays above

N#Cc1cnc2[nH]cc(C(=O)c3c(F)ccc(NS(=O)(=O)c4ccccc4F)c3F)c2c1 [P-2011, N-[3-(5-Cyano-1H-pyrrolo[2,3-b]pyridine-3-carbonyl)-2,4-difluoro-phenyl]-2-fluoro-benzenesulfonamide]
≤ 10 µM: all assays above

Cc1cnc2[nH]cc(C(=O)c3c(F)ccc(NS(=O)(=O)c4ccccc4F)c3F)c2c1 [P-2014, N-[2,4-Difluoro-3-(5-methyl-1H-pyrrolo[2,3-b]pyridine-3-carbonyl)-phenyl]-2-fluoro-benzenesulfonamide]
≤ 10 µM: all assays above

O=C(c1c(F)ccc(NS(=O)(=O)c2ncn[nH]2)c1F)c1c[nH]c2ncc(Cl)cc12 [P-2062, 2H-[1,2,4]Triazole-3-sulfonic acid [3-(5-chloro-1H-pyrrolo[2,3-b]pyridine-3-carbonyl)-2,4-difluoro-phenyl]-amide]
not listed: [2] | [4]
≤ 10 µM: all other assays above

N#Cc1cnc2[nH]cc(C(=O)c3c(F)ccc(NS(=O)(=O)c4ccccn4)c3F)c2c1 [P-2063, Pyridine-2-sulfonic acid [3-(5-cyano-1H-pyrrolo[2,3-b]pyridine-3-carbonyl)-2,4-difluoro-phenyl]-amide]
not listed: [2] | [6]
≤ 10 µM: all other assays above

Cc1cnc2[nH]cc(C(=O)c3c(F)ccc(NS(=O)(=O)c4ncn[nH]4)c3F)c2c1 [P-2065, 2H-[1,2,4]Triazole-3-sulfonic acid [2,4-difluoro-3-(5-methyl-1H-pyrrolo[2,3-b]pyridine-3-carbonyl)-phenyl]-amide]
not listed: [2] | [4]
≤ 10 µM: all other assays above

Cc1cnc2[nH]cc(C(=O)c3c(F)ccc(NS(=O)(=O)c4cccnc4)c3F)c2c1 [P-2069, Pyridine-3-sulfonic acid [2,4-difluoro-3-(5-methyl-1H-pyrrolo[2,3-b]pyridine-3-carbonyl)-phenyl]-amide]
not listed: [2] | [6]
≤ 10 µM: all other assays above

O=C(c1c(F)ccc(NS(=O)(=O)c2ccccn2)c1F)c1c[nH]c2nccc(Cl)c12 [P-2075, Pyridine-2-sulfonic acid [3-(4-chloro-1H-pyrrolo[2,3-b]pyridine-3-carbonyl)-2,4-difluoro-phenyl]-amide]
not listed: [2]
≤ 10 µM: all other assays above

COc1ccnc2[nH]cc(C(=O)c3c(F)ccc(NS(=O)(=O)c4ccccn4)c3F)c12 [P-2076, Pyridine-2-sulfonic acid [2,4-difluoro-3-(4-methoxy-1H-pyrrolo[2,3-b]pyridine-3-carbonyl)-phenyl]-amide]
not listed: [2] | [6]
≤ 10 µM: all other assays above

CCS(=O)(=O)Nc1ccc(F)c(C(=O)c2c[nH]c3nccc(Cl)c23)c1F [P-2276, Ethanesulfonic acid [3-(4-chloro-1H-pyrrolo[2,3-b]pyridine-3-carbonyl)-2,4-difluoro-phenyl]-amide]
not listed: [2]
≤ 10 µM: all other assays above

CCS(=O)(=O)Nc1ccc(F)c(C(=O)c2c[nH]c3ncc(C)cc23)c1F [P-2277, Ethanesulfonic acid [2,4-difluoro-3-(5-methyl-1H-pyrrolo[2,3-b]pyridine-3-carbonyl)-phenyl]-amide]
not listed: [2]
≤ 10 µM: all other assays above

CCCC(C)S(=O)(=O)Nc1ccc(F)c(C(=O)c2c[nH]c3ncc(C)cc23)c1F (stereo not drawn) [P-2315, Pentane-2-sulfonic acid [2,4-difluoro-3-(5-methyl-1H-pyrrolo[2,3-b]pyridine-3-carbonyl)-phenyl]-amide]
not listed: [3] | [4]
≤ 10 µM: all other assays above

Cc1cnc2[nH]cc(C(=O)c3c(F)ccc(NS(=O)(=O)CC(F)(F)F)c3F)c2c1 [P-2337, 2,2,2-Trifluoro-ethanesulfonic acid [2,4-difluoro-3-(5-methyl-1H-pyrrolo[2,3-b]pyridine-3-carbonyl)-phenyl]-amide]
not listed: [2] | [4]
≤ 10 µM: all other assays above

O=C(c1c(F)ccc(NS(=O)(=O)C(F)(F)F)c1F)c1c[nH]c2ncc(Cl)cc12 [P-2346, N-[3-(5-Chloro-1H-pyrrolo[2,3-b]pyridine-3-carbonyl)-2,4-difluoro-phenyl]-C,C,C-trifluoro-methanesulfonamide]
not listed: [2]
≤ 10 µM: all other assays above

O=C(c1c(F)ccc(NS(=O)(=O)C2CCCCC2)c1F)c1c[nH]c2nccc(Cl)c12 [P-2367, Cyclohexanesulfonic acid [3-(4-chloro-1H-pyrrolo[2,3-b]pyridine-3-carbonyl)-2,4-difluoro-phenyl]-amide]
not listed: [6]
≤ 10 µM: all other assays above

CCCS(=O)(=O)Nc1cccc(C(=O)c2c[nH]c3ncc(-c4cnc(N(C)C)nc4)cc23)c1F [P-2408, Propane-1-sulfonic acid {3-[5-(2-dimethylamino-pyrimidin-5-yl)-1H-pyrrolo[2,3-b]pyridine-3-carbonyl]-2-fluoro-phenyl}-amide]
not listed: [2]
≤ 10 µM: all other assays above
